Test results from patent US20200190087A1 (priority 2016, published 2020).
Read-outs that look alike come from different tables or passages of the source.

Assays:
human μ-opioid receptor = target: T1, human μ-opioid receptor (Homo sapiens, UniProt P35372); assay: Human μ-opioid receptor radioligand assay ([3H]-DAMGO); assay type: binding
T1 construct: expressed in transfected cells; host or cells: CHO-K1
Protocol: Human μ-Opioid Receptor Radioligand Assay
To investigate binding properties of test compounds to human μ-opioid receptor, transfected CHO-K1 cell membranes and [^3H]-DAMGO (Perkin Elmer, ES-542-C), as the radioligand, were used. The assay was carried out with 20 μg of membrane suspension, 1 nM of [^3H]-DAMGO in either absence or presence of either buffer or 10 μM Naloxone for total and non-specific binding, respectively. Binding buffer contained Tris-HCl 50 mM, MgCl2 5 mM at pH 7.4. Plates were incubated at 27° C. for 60 minutes. After the incubation period, the reaction mix was then transferred to MultiScreen HTS, FC plates (Millipore), filtered and plates were washed 3 times with ice-cold 10 mM Tris-HCL (pH 7.4). Filters were dried and counted at approximately 40% efficiency in a MicroBeta scintillation counter (Perkin-Elmer) using EcoScint liquid scintillation cocktail. Preferably, transfected CHO-K1 cell membranes (20 μg) were incubated with 1 nM of [^3H]-DAMGO in assay buffer containing Tris-HCl 50 mM, MgCl2 5 mM at pH 7.4. NBS (non-specific binding) was measured by adding 10 μM Naloxone. The binding of the test compound was measured at five different concentrations. Plates were incubated at 27° C. for 60 minutes. After the incubation period, the reaction mix was then transferred to MultiScreen HTS, FC plates (Millipore), filtered and plates were washed 3 times with ice-cold 10 mM Tris-HCL (pH 7.4). Filters were dried and counted at approximately 40% efficiency in a MicroBeta scintillation counter (Perkin-Elmer) using EcoScint liquid scintillation cocktail.

[1] = target: Human α2δ-1 subunit of Cav2.2 calcium channel (Homo sapiens, UniProt P54289); assay: Human α2δ-1 subunit of Cav2.2 calcium channel assay ([3H]-Gabapentin binding); conditions: human α2δ-1 enriched membranes, 15 nM [3H]-Gabapentin, binding expressed as Ki; read-out: α2δ1 binding activity
Protocol: Human α2δ-1 Subunit of Cav2.2 Calcium Channel Assay
Human α2δ-1 enriched membranes (2.5 μg) were incubated with 15 nM of radiolabeled [3H]-Gabapentin in assay buffer containing Hepes-KOH 10 mM, pH 7.4. NSB (non specific binding) was measured by adding 10 μM pregabalin. The binding of the test compound was measured at five different concentrations. After 60 min incubation at 27° C., binding reaction was terminated by filtering through Multiscreen GF/C (Millipore) presoaked in 0.5% polyethyleneimine in Vacuum Manifold Station, followed by 3 washes with ice-cold filtration buffer containing 50 mM Tris-HCl, pH 7.4. Filter plates were dried at 60° C. for 1 hour and 30 μl of scintillation cocktail were added to each well before radioactivity reading. Readings were performed in a Trilux 1450 Microbeta radioactive counter (Perkin Elmer).

[2] = transfected CHO-K1 cell membranes, 1 nM [3H]-DAMGO, binding expressed as Ki, read-out: Mu binding activity

Sequence of Human α2δ-1 subunit of Cav2.2 calcium channel (P54289 25-1103): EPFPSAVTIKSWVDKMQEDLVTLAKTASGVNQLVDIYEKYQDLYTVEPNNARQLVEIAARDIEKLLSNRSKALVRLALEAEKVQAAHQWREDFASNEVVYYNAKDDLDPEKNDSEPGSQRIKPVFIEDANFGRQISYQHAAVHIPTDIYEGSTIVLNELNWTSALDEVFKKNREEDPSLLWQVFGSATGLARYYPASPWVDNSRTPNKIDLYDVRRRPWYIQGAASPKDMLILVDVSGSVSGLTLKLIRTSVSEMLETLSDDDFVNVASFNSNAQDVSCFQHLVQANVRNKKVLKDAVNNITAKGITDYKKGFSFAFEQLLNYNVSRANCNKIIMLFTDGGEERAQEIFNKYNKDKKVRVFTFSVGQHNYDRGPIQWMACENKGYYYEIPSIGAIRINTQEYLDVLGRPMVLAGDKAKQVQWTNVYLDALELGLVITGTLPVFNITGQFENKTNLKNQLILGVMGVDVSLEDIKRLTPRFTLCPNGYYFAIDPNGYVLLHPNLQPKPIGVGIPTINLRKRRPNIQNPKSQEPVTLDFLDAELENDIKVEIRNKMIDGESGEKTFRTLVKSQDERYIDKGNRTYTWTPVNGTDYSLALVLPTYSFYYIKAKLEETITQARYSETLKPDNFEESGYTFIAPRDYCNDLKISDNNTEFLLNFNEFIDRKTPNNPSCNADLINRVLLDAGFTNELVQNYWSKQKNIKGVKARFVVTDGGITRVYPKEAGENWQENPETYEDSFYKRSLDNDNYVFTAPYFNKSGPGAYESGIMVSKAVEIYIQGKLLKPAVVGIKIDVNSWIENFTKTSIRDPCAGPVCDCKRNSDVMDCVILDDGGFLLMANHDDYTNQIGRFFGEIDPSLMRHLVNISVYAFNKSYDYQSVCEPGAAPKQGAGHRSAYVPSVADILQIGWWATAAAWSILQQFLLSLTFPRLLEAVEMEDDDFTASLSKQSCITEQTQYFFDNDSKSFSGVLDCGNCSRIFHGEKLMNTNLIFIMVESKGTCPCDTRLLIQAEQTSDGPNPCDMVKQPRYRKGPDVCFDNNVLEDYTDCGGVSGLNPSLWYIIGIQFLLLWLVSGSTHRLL
T1 sequence (P35372 whole entry): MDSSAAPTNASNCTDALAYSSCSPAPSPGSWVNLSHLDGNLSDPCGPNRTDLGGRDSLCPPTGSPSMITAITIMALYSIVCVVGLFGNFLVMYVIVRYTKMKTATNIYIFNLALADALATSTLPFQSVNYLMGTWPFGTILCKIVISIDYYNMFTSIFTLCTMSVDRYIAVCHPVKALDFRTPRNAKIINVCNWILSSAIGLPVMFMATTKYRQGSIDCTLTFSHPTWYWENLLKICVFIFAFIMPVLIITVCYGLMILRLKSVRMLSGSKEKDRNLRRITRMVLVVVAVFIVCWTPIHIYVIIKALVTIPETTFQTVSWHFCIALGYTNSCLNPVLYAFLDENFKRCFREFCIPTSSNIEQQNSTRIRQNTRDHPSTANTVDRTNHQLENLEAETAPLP

Row | Ki (human μ-opioid receptor; [2]) [nM] | Ki [1] [nM] | SMILES | Ki (human μ-opioid receptor) [nM]
1 | > 500 | ≥ 5000 | CCOc1ccc(-n2nc3c(C4=CCN(C(=O)OC(C)(C)C)CC4)nnc(C)c3c2C)c(F)c1 [Ex 1, tert-Butyl 4-(2-(4-ethoxy-2-fluorophenyl)-3,4-dimethyl-2H-pyrazolo[3,4-d]pyridazin-7-yl)-3,6-dihydropyridine-1(2H)-carboxylate] | –
2 | > 500 | ≥ 5000 | CCOc1ccc(-n2nc3c(C4=CN(C(=O)OC(C)(C)C)CCC4)nnc(C)c3c2C)c(F)c1 [Ex 3, tert-Butyl 5-(2-(4-ethoxy-2-fluorophenyl)-3,4-dimethyl-2H-pyrazolo[3,4-d]pyridazin-7-yl)-3,4-dihydropyridine-1(2H)-carboxylate] | –
3 | > 500 | ≥ 5000 | CCOc1ccc(-n2nc3c(/C=C/CNC(=O)OC(C)(C)C)nnc(C)c3c2C)c(F)c1 [Ex 4, tert-Butyl (E)-(3-(2-(4-ethoxy-2-fluorophenyl)-3,4-dimethyl-2H-pyrazolo[3,4-d]pyridazin-7-yl)allyl)carbamate] | –
4 | > 500 | ≥ 5000 | CCOc1ccc(-n2nc3c(/C=C/CN(C)C(=O)OC(C)(C)C)nnc(C)c3c2C)c(F)c1 [Ex 5, tert-Butyl (E)-(3-(2-(4-ethoxy-2-fluorophenyl)-3,4-dimethyl-2H-pyrazolo[3,4-d]pyridazin-7-yl)allyl)(methyl)carbamate] | –
5 | > 500 | 500 to 3000 | CCOc1ccc(-n2nc3c(-c4ccc(CN(C)C)cc4)nnc(C)c3c2C)c(F)c1 [Ex 6, 1-(4-(2-(4-Ethoxy-2-fluorophenyl)-3,4-dimethyl-2H-pyrazolo[3,4-d]pyridazin-7-yl)phenyl)-N,N-dimethylmethanamine] | –
6 | > 500 | 500 to 3000 | CCOc1ccc(-n2nc3c(-c4ccc(CCN(C)C)cc4)nnc(C)c3c2C)c(F)c1 [Ex 7, 2-(4-(2-(4-Ethoxy-2-fluorophenyl)-3,4-dimethyl-2H-pyrazolo[3,4-d]pyridazin-7-yl)phenyl)-N,N-dimethylethan-1-amine] | –
7 | > 500 | 500 to 3000 | CCOc1ccc(-n2nc3c(-c4cccc(CN(C)C)c4)nnc(C)c3c2C)c(F)c1 [Ex 8, 1-(3-(2-(4-Ethoxy-2-fluorophenyl)-3,4-dimethyl-2H-pyrazolo[3,4-d]pyridazin-7-yl)phenyl)-N,N-dimethylmethanamine] | –
8 | > 500 | 500 to 3000 | CCOc1ccc(-n2nc3c(-c4cccc(CCN(C)C)c4)nnc(C)c3c2C)c(F)c1 [Ex 9, 2-(3-(2-(4-Ethoxy-2-fluorophenyl)-3,4-dimethyl-2H-pyrazolo[3,4-d]pyridazin-7-yl)phenyl)-N,N-dimethylethan-1-amine] | –
9 | > 500 | 3000 to 5000 | CCOc1ccc(-n2nc3c(-c4ccc5ncn(CCN(C)C)c5c4)nnc(C)c3c2C)c(F)c1 [Ex 10, 2-(6-(2-(4-Ethoxy-2-fluorophenyl)-3,4-dimethyl-2H-pyrazolo[3,4-d]pyridazin-7-yl)-1H-benzo[d]imidazol-1-yl)-N,N-dimethylethan-1-amine] | –
10 | > 500 | > 5000 | CCOc1ccc(-n2nc3c(-c4ccc5ncn(CCNC(=O)OC(C)(C)C)c5c4)nnc(C)c3c2C)c(F)c1 [Ex 11, tert-butyl (2-(6-(2-(4-ethoxy-2-fluorophenyl)-3,4-dimethyl-2H-pyrazolo[3,4-d]pyridazin-7-yl)-1H-benzo[d]imidazol-1-yl)ethyl)carbamate] | –
11 | > 500 | ≥ 5000 | CCOc1ccc(-n2nc3c(C4CN(C(=O)OC(C)(C)C)C4)nnc(C)c3c2C)c(F)c1 [Ex 12, tert-Butyl 3-(2-(4-ethoxy-2-fluorophenyl)-3,4-dimethyl-2H-pyrazolo[3,4-d]pyridazin-7-yl)azetidine-1-carboxylate] | –
12 | > 500 | ≥ 5000 | CCOc1ccc(-n2nc3c(C4CCN(C(=O)OC(C)(C)C)CC4)nnc(C)c3c2C)c(F)c1 [Ex 13, tert-Butyl 4-(2-(4-ethoxy-2-fluorophenyl)-3,4-dimethyl-2H-pyrazolo[3,4-d]pyridazin-7-yl)piperidine-1-carboxylate] | –
13 | > 500 | 500 to 3000 | CCOc1ccc(-n2nc3c(C4CCN(C)CC4)nnc(C)c3c2C)c(F)c1 [Ex 14, 2-(4-Ethoxy-2-fluorophenyl)-3,4-dimethyl-7-(1-methylpiperidin-4-yl)-2H-pyrazolo[3,4-d]pyridazine] | –
14 | > 500 | ≥ 5000 | CCOc1ccc(-n2nc3c(C4CCCN(C(=O)OC(C)(C)C)C4)nnc(C)c3c2C)c(F)c1 (stereo not drawn) [Ex 15, tert-Butyl-3-(2-(4-ethoxy-2-fluorophenyl)-3,4-dimethyl-2H-pyrazolo[3,4-d]pyridazin-7-yl)piperidine-1-carboxylate] | –
15 | > 500 | ≥ 5000 | CCOc1ccc(-n2nc3c(CCCNC(=O)OC(C)(C)C)nnc(C)c3c2C)c(F)c1 [Ex 16, tert-Butyl-(3-(2-(4-ethoxy-2-fluorophenyl)-3,4-dimethyl-2H-pyrazolo[3,4-d]pyridazin-7-yl)propyl)carbamate] | –
16 | > 500 | ≥ 5000 | CCOc1ccc(-n2nc3c(CCCN(C)C(=O)OC(C)(C)C)nnc(C)c3c2C)c(F)c1 [Ex 17, tert-Butyl-(3-(2-(4-ethoxy-2-fluorophenyl)-3,4-dimethyl-2H-pyrazolo[3,4-d]pyridazin-7-yl)propyl)(methyl)carbamate] | –
17 | > 500 | 500 to 3000 | CCOc1ccc(-n2nc3c(C4CCNCC4)nnc(C)c3c2C)c(F)c1 [Ex 18, 2-(4-Ethoxy-2-fluorophenyl)-3,4-dimethyl-7-(piperidin-4-yl)-2H-pyrazolo[3,4-d]pyridazine] | –
18 | > 500 | ≥ 5000 | CCOc1ccc(-n2nc3c(C4CCCNC4)nnc(C)c3c2C)c(F)c1 (stereo not drawn) [Ex 19, 2-(4-Ethoxy-2-fluorophenyl)-3,4-dimethyl-7-(piperidin-3-yl)-2H-pyrazolo[3,4-d]pyridazine] | –
19 | > 500 | 500 to 3000 | CCOc1ccc(-n2nc3c(CCCN)nnc(C)c3c2C)c(F)c1 [Ex 20, 3-(2-(4-Ethoxy-2-fluorophenyl)-3,4-dimethyl-2H-pyrazolo[3,4-d]pyridazin-7-yl)propan-1-amine] | –
20 | > 500 | ≥ 5000 | CCOc1ccc(-n2nc3c(CCCNC)nnc(C)c3c2C)c(F)c1 [Ex 21, 3-(2-(4-Ethoxy-2-fluorophenyl)-3,4-dimethyl-2H-pyrazolo[3,4-d]pyridazin-7-yl)-N-methylpropan-1-amine] | –
21 | > 500 | ≥ 5000 | CCOc1ccc(-n2nc3c(C4CNC4)nnc(C)c3c2C)c(F)c1 [Ex 22, 7-(Azetidin-3-yl)-2-(4-ethoxy-2-fluorophenyl)-3,4-dimethyl-2H-pyrazolo[3,4-d]pyridazine] | –
22 | > 500 | ≥ 5000 | CCOc1ccc(-n2nc3c(CCN)nnc(C)c3c2C)c(F)c1 [Ex 23, 2-(2-(4-Ethoxy-2-fluorophenyl)-3,4-dimethyl-2H-pyrazolo[3,4-d]pyridazin-7-yl)ethan-1-amine] | –
23 | > 500 | 3000 to 5000 | CCOc1ccc(-n2nc3c(-c4ccc5ncn(CCN)c5c4)nnc(C)c3c2C)c(F)c1 [Ex 24, 2-(6-(2-(4-Ethoxy-2-fluorophenyl)-3,4-dimethyl-2H-pyrazolo[3,4-d]pyridazin-7-yl)-1H-benzo[d]imidazol-1-yl)ethan-1-amine] | –
24 | > 500 | 500 to 3000 | CCOc1ccc(-n2nc3c(C4CCN(Cc5ccc(F)cc5)CC4)nnc(C)c3c2C)c(F)c1 [Ex 27, 2-(4-Ethoxy-2-fluorophenyl)-7-(1-(4-fluorobenzyl)piperidin-4-yl)-3,4-dimethyl-2H-pyrazolo[3,4-d]pyridazine] | –

Row | SMILES | Ki (human μ-opioid receptor; [2]) [nM] | Ki [1] [nM] | Ki (human μ-opioid receptor) [nM]
25 | CCOc1ccc(-n2nc3c(C4=CCN(C)CC4)nnc(C)c3c2C)c(F)c1 [Ex 2, 2-(4-Ethoxy-2-fluorophenyl)-3,4-dimethyl-7-(1-methyl-1,2,3,6-tetrahydropyridin-4-yl)-2H-pyrazolo[3,4-d]pyridazine] | > 500 | ≥ 5000 | –
26 | CCOc1ccc(-n2nc3c(C4CCN(CCc5ccccc5)CC4)nnc(C)c3c2C)c(F)c1 [Ex 25, 2-(4-Ethoxy-2-fluorophenyl)-3,4-dimethyl-7-(1-phenethylpiperidin-4-yl)-2H-pyrazolo[3,4-d]pyridazine] | – | 500 to 3000 | < 500
27 | CCOc1ccc(-n2nc3c(C4CCN(Cc5ccccc5)CC4)nnc(C)c3c2C)c(F)c1 [Ex 26, 7-(1-Benzylpiperidin-4-yl)-2-(4-ethoxy-2-fluorophenyl)-3,4-dimethyl-2H-pyrazolo[3,4-d]pyridazine] | – | < 500 | < 500
